For the assay, the target named is T1, cloned human CRTH2 receptor (Homo sapiens, UniProt Q9Y5Y4).
T1 construct: purchased Biosignal; host or cells: HEK-293 cells stably expressing human CRTH2 and G alpha 16
T1 sequence (Q9Y5Y4 1-395): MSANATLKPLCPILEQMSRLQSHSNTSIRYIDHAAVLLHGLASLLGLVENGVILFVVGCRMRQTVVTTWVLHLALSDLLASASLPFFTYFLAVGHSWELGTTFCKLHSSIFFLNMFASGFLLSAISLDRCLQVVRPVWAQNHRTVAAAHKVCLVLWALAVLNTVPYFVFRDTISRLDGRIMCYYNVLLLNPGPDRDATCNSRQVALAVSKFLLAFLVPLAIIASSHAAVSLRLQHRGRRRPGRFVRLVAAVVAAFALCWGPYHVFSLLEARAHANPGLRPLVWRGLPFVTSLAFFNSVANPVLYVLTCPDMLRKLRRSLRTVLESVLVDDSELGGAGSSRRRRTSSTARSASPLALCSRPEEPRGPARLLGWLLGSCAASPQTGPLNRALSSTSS
Put plainly: radioligand membrane binding assay: inhibition of [3H] PGD2 binding, Scintillation Proximity Assay. Conditions: [3H] PGD2 binding to membranes of HEK-293 cells expressing human CRTH2; SPA. Here is the method: This radioligand membrane binding assay evaluates the ability of compounds to inhibit [^3H] Prostaglandin D2 (PGD2) binding to the cloned human CRTH2 receptor stably expressed in HEK-293 cells (expressing human CRTh2 receptor and α subunit or the heterotrimeric G protein 16 were prepared by Biosignal Company) using Scintillation Proximity Assay.
A binding buffer containing 50 mM Tris-HCl (pH 7.5), 5 mM MgCl2 and 1 mM EDTA is prepared immediately prior to performing the assay. A bead/membrane solution at twice the final assay concentration comprising membranes (membranes bought from Biosignal) from the HEK-293 cells cloned to express CRTH2 receptor bound to and [^3H] PGD2 at two times the final assay concentration are prepared and stored on ice before adding to wells. Cold PGD2 at twenty times the final assay concentration is prepared and stored on ice before adding to wells defining non-specific binding (NSB) coming plates #3653 are used for this assay.
10 mM stock concentrations of compounds in 100% DMSO are prepared and stored at room temperature. A 10 point concentration response curve is then constructed for each compound, starting at 10 μM (final assay concentration). The compounds are prepared at 40 times final assay concentrations with nine consequent-3-fold dilutions.
0.1 μl of each concentration of compound are added to the appropriate well of the 384 plate and 2 μl of cold PGD2 is added into the wells defining NSB. 20 μl of [3H] PGD2 and then 20 μl of 2× of bead/membrane solution are then added to each well.
The plates are allowed to incubate at room temperature for approximately 2 hours and then counted on Packard Topcount using SPA tritium protocol for 1 minute/well.
The percent inhibition of PGD2 binding (PGD2 used at the KD value or lower) to the HEK-293 cell membranes is determined, the assay is always run as duplicate for n=1 for a total of n=2 and shown below.
Consider `CCN(C(=O)[C@H]1C[C@H](C)N(C(=O)Cc2ccc(OC)cc2)c2ccccc21)c1ccc(Cl)cc1` (racemic) [Compound 2, (±)-trans-1-[2-(4-Methoxy-phenyl)-acetyl]-2-methyl-1,2,3,4-tetrahydro-quinoline-4-carboxylic acid (4-chloro-phenyl)-ethyl-amide], for which the Ki was less than 10 µM.

`CCN(Cc1ccc(Cl)cc1)C(=O)[C@H]1C[C@H](C)N(C(=O)c2ccc(OC)cc2)c2ccccc21` (racemic) [Compound 5, (±)-trans-1-(4-Methoxy-benzoyl)-2-methyl-1,2,3,4-tetrahydro-quinoline-4-carboxylic acid (4-chloro-benzyl)-ethyl-amide] had a Ki of less than 10 µM.

In turn, `CCN(C(=O)[C@H]1C[C@H](C)N(C(=O)c2ccc(OC)cc2)c2ccccc21)c1ccc(Cl)c(C(F)(F)F)c1` (racemic) [Compound 11, (±)-trans-1-(4-Methoxy-benzoyl)-2-methyl-1,2,3,4-tetrahydro-quinoline-4-carboxylic acid (4-chloro-3-trifluoromethyl-phenyl)-ethyl-amide] showed a Ki of less than 10 µM.

Consider `CCN(C(=O)[C@H]1C[C@H](C)N(C(=O)c2ccc(OC)cc2)c2ccccc21)c1ccc(C(C)C)cc1` (racemic) [Compound 15, (±)-trans-1-(4-Methoxy-benzoyl)-2-methyl-1,2,3,4-tetrahydro-quinoline-4-carboxylic acid ethyl-(4-isopropyl-phenyl)-amide], for which the Ki was less than 10 µM.

For `CCN(C(=O)C1CCN(C(=O)c2ccc(OC)cc2)c2ccccc21)c1ccc(Cl)cc1` (racemic) [Compound 33, (±)-1-(4-Methoxy-benzoyl)-1,2,3,4-tetrahydro-quinoline-4-carboxylic acid (4-chloro-phenyl)-ethyl-amide], the Ki was less than 10 µM.

The molecule `CCN(C(=O)[C@H]1C[C@H](C)N(C(=O)c2ccc(OC)cc2)c2ccccc21)c1cc(C)on1` (racemic) [Compound 35, (±)-trans-1-(4-Methoxy-benzoyl)-2-methyl-1,2,3,4-tetrahydro-quinoline-4-carboxylic acid ethyl-(5-methyl-isoxazol-3-yl)-amide] displayed a Ki of less than 10 µM.

In turn, `CCN(C(=O)[C@H]1C[C@H](C)N(C(=O)c2ccc(OC)cc2)c2ccccc21)c1ccc(C)c(C(F)(F)F)c1` (racemic) [Compound 50, (±)-trans-1-(4-Methoxy-benzoyl)-2-methyl-1,2,3,4-tetrahydro-quinoline-4-carboxylic acid ethyl-(4-methyl-3-trifluoromethyl-phenyl)-amide] gave a Ki of less than 10 µM.

`CCN(C(=O)[C@H]1C[C@H](C)N(C(=O)c2ccc(OC)cc2)c2ccccc21)c1ccc(C)c(F)c1` (racemic) [Compound 57, (±)-trans-1-(4-Methoxy-benzoyl)-2-methyl-1,2,3,4-tetrahydro-quinoline-4-carboxylic acid ethyl-(3-fluoro-4-methyl-phenyl)-amide] displayed a Ki of less than 10 µM.

Regarding `CCN(C(=O)[C@H]1C[C@H](C)N(C(=O)c2ccc(OC)cc2)c2ccccc21)c1ccccc1C` (racemic) [Compound 61, (±)-trans-1-(4-Methoxy-benzoyl)-2-methyl-1,2,3,4-tetrahydro-quinoline-4-carboxylic acid ethyl-o-tolyl-amide], the Ki is less than 10 µM.

The molecule `CCN(C(=O)[C@H]1C[C@@H](C)N(C(=O)c2ccc(OCCC(C)(C)C(=O)O)cc2)c2ccccc21)c1ccc(Cl)cc1` (racemic) [Compound 76, (±)-cis-4-(4-{4-[(4-Chloro-phenyl)-ethyl-carbamoyl]-2-methyl-3,4-dihydro-2H-quinoline-1-carbonyl}-phenoxy)-2,2-dimethyl-butyric acid] yielded a Ki of less than 10 µM.

As usually defined, the Ki is the dissociation constant of the complex between target and ligand, obtained from inhibition or displacement. Higher therefore signals lower affinity.

(Values after US7951950B2, “PGD2 receptor antagonists for the treatment of inflammatory diseases” (Millennium Pharmaceuticals, Inc., priority 2005, dated 2011).)
